In ChEMBL document CHEMBL5233288, “Ginkgo Biflavones Cause p53 Wild-Type Dependent Cell Death in a Transcription-Independent Manner of p53” (J Nat Prod, 2023):
The source made the active and inactive calls. No cut-off for these calls is given here.

Legend:
[1] = tested on: HCT-116; experiment: Induction of apoptosis in human HCT-116 cells expressing wild type p53 assessed as early apoptotic cells at 20 uM incubated for 48 hrs by Annexin V-FITC/PI staining based flow cytometry (reference value: 12%); type: functional
[2] = tested on: LoVo; experiment: Cytotoxicity against human LoVo cells expressing wild type p53 assessed as induction of cell death at 20 uM incubated for 72 hrs by resazurin based analysis; type: functional
[3] = tested on: HCT-116; experiment: Cytotoxicity against human HCT-116 cells deficit of p53 expression assessed as induction of cell death at 20 uM incubated for 72 hrs by resazurin based analysis; type: functional
[4] = tested on: HCT-116; experiment: Induction of cell cycle arrest in human HCT-116 cells expressing wild type p53 assessed as accumulation of cells at G1 phase at 20 uM incubated for 24 hrs by PI staining based flow cytometry (reference value: 62.5 to 66.7%); type: functional
[5] = tested on: HT-29; experiment: Cytotoxicity against human HT-29 cells expressing p53 mutant assessed as induction of cell death at 20 uM incubated for 72 hrs by resazurin based analysis; type: functional
[6] = target: Cellular tumor antigen p53 (Homo sapiens) (UniProt P04637); experiment: Inhibition of p53 transcriptional activity in human HCT-116 cells assessed as inhibition of protein binding to p21 DNA promoter region at 20 uM incubated for 24 hrs by ChIP analysis; type: cell-based
[7] = tested on: HCT-116; experiment: Induction of cell cycle arrest in human HCT-116 cells expressing wild type p53 assessed as accumulation of cells at G1 phase at 5 uM incubated for 24 hrs by PI staining based flow cytometry (reference value: 62.5 to 66.7%); type: functional
[8] = tested on: HCT-116; experiment: Upregulation of p53 protein expression in human HCT-116 cells at 10 uM incubated for 24 hrs by western blot analysis; type: functional, cell-based
[9] = tested on: HCT-116; experiment: Cytotoxicity against human HCT-116 cells assessed as reduction in cell viability at 10 uM incubated for 72 hrs in presence of autophagy inhibitor, 3-methyladenine by resazurin-based analysis; type: functional
[10] = tested on: HCT-116; experiment: Induction of apoptosis in human HCT-116 cells expressing wild type p53 assessed as early apoptotic cells at 10 uM incubated for 48 hrs by Annexin V-FITC/PI staining based flow cytometry (reference value: 12.5%); type: functional
[11] = tested on: HCT-116; experiment: Increase in mitochondrial complex I activity in human HCT-116 cells at 20 uM incubated for 24 hrs; type: functional, cell-based
[12] = tested on: HCT-116; experiment: Upregulation of acetylated p53 protein expression in human HCT-116 cells expressing wild type p53 at 20 uM incubated for 24 hrs by western blot analysis; type: functional, cell-based
[13] = tested on: HCT-116; experiment: Potentiation of 5-FU-induced antitumor activity against human HCT-116 cells xenografted in BALB/c nude mouse assessed as reduction in tumor weight at 10 mg/kg, ip qd for 12 days and administered with 5-FU at 30 mg/kg, ip once every 3 days for 12 days; type: functional, organism-based; conditions: time 12.0 day
[14] = Toxicity against BALB/c nude mouse xenografted with human HCT-116 cells assessed as body weight loss at 10 mg/kg, ip qd for 12 days and measured every 2 days; type: organism-based; conditions: in vivo, 288 h, time 12 day
[15] = tested on: HCT-116; experiment: Potentiation of 5-FU-induced antitumor activity against human HCT-116 cells xenografted in BALB/c nude mouse assessed as reduction in tumor volume at 10 mg/kg, ip qd for 12 days and administered with 5-FU at 30 mg/kg, ip once every 3 days for 12 days and measured every 2 days; type: functional, organism-based; conditions: time 12.0 day
[16] = Toxicity against BALB/c nude mouse xenografted with human HCT-116 cells assessed as body weight loss at 10 mg/kg, ip qd for 12 days and administered with 5-FU at 30 mg/kg, ip once every 3 days for 12 days and measured every 2 days; type: organism-based; conditions: in vivo, 288 h, time 12 day
[17] = tested on: HCT-116; experiment: Antitumor activity against human HCT-116 cells xenografted in BALB/c nude mouse assessed as reduction in tumor weight at 10 mg/kg, ip qd for 12 days; type: functional, organism-based; conditions: time 12.0 day
[18] = tested on: HCT-116; experiment: Antitumor activity against human HCT-116 cells xenografted in BALB/c nude mouse assessed as reduction in tumor volume at 10 mg/kg, ip qd for 12 days and measured every 2 days; type: functional, organism-based; conditions: time 12.0 day

Chain of Cellular tumor antigen p53 (Homo sapiens) (P04637 whole entry, looked up): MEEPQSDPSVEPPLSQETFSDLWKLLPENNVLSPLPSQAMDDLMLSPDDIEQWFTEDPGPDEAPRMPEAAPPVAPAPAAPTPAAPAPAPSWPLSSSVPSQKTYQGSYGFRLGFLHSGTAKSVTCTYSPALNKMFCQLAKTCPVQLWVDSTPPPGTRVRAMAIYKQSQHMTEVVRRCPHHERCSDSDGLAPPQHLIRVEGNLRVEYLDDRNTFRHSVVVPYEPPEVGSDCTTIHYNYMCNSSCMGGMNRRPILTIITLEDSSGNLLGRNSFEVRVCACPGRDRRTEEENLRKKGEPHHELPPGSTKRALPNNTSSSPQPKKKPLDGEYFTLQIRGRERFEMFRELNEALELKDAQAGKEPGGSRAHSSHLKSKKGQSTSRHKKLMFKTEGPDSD

inhibition [6] | SMILES | Activity [1] [%] | Activity [2] | Activity [3] | Activity [4] [%] | Activity [5] | Activity [7] [%] | Activity [8] | Activity [9] | Activity [10] [%] | Activity [11] | Activity [12] | Activity [13] | Activity [14] | Activity [15] | Activity [16] | Activity [17] | Activity [18]
Active | COc1ccc(-c2cc(=O)c3c(O)cc(O)cc3o2)cc1-c1c(O)cc(O)c2c(=O)cc(-c3ccc(O)cc3)oc12 [BILOBETIN] | 39.9 | Active | inactive | 51.2 | inactive | 64.4 | Active | inactive | 28 | Active | Active |  |  |  |  |  | 
Active | COc1cc(O)c2c(=O)cc(-c3ccc(OC)c(-c4c(O)cc(O)c5c(=O)cc(-c6ccc(O)cc6)oc45)c3)oc2c1 [GINKGETIN] | 33.6 | Active | inactive | 45.3 | inactive | 58.1 | Active | inactive | 25.8 | Active | Active | Active | Non-Toxic | Active | Non-Toxic | Active | Active
Active | COc1ccc(-c2cc(=O)c3c(O)cc(O)c(-c4cc(-c5cc(=O)c6c(O)cc(O)cc6o5)ccc4OC)c3o2)cc1 [ISOGINKGETIN] | 40.6 | Active | inactive | 47.3 | inactive | 58.4 | Active | inactive | 26.5 | Active | Active |  |  |  |  |  | 
